Measured values reported in paper PMC10874388, “Cyclic peptides discriminate BCL-2 and its clinical mutants from BCL-XL by engaging a single-residue discrepancy” (Nature Communications, 2024).
Where “and” joins values, the source holds several entries; their conditions need not be identical. Equal values may be shown once.

Experiments:
Type in all cases: cell-based
[1] = test system: Daudi cells; assay: Cell viability assay (CellTiter-Glo), Daudi; settings: Daudi
Description: (§1) The cell lines Jurkat (TIB-152), El4 (TIB-39), Daudi (ccl-213), RS4:11 (crl-1873), A549 (ccl-185), HepG2 (hb-8065) and PANC-1 (crl-1469) were purchased from ATCC (American Type Culture Collection), and MGC-803 (C6582) was purchased from Beyotime (https://www.beyotime.com/product/C6582.htm). […] Daudi and RS4:11 cells were cultured in RPMI-1640 medium (HyClone, SH30809.01) and 10% FBS (Gibco, 10099-141), whereas HepG2, MGC-803 and PANC-1 cells were cultured in MDEM (HyClone, SH30243.01). Cells were maintained at 37 °C under a humidified, 5% (v/v) CO2-containing atmosphere.
(§2) Cell viability was measured using CellTiter-Glo® 2.0 Reagent (Promega, G9242). […] After different inhibitors were added into serum-free medium and cultured for 4 h (RS4:11 for 6 h), FBS were supplemented to 10% and then incubated totally for 24 h or 48 h. Finally, the IC50 values were calculated based on measurements using a microplate reader (Thermo, Varioskan LUX). Statistical analysis was performed using software GraphPad Prism 7.0.

[2] = test system: RS4:11 cells; assay: Cell viability assay (CellTiter-Glo), RS4:11; settings: single wells; for raw luminescence reading / inhibition rate: RS4:11
Description: as §1, §2

[3] = test system: Jurkat cells; assay: Cell viability assay (CellTiter-Glo), Jurkat
Description: as §1, §2

CC1(C)CCC(c2ccc(Cl)cc2)=C(CN2CCN(c3ccc(C(=O)NS(=O)(=O)c4ccc(N[C@H](CCN5CCOCC5)CSc5ccccc5)c(S(=O)(=O)C(F)(F)F)c4)cc3)CC2)C1 [ABT263]
inhibition relative to 0 uM control, replicates ([1]; 0.78125 uM): -13% and 6.58% and 11% and 14% and -14% and 9%
raw viability signal, replicates ([1]; 0.78125 uM): 1671 and 1386 and 1318 and 1281 and 1698 and 1345
inhibition relative to 0 uM control, replicates ([1]; 1.5625 uM): 12% and 28% and 13% and 5% and 2.67% and -0.427%
raw viability signal, replicates ([1]; 1.5625 uM): 1303 and 1062 and 1294 and 1413 and 1444 and 1490
inhibition relative to 0 uM control, replicates ([1]; 3.125 uM): 25% and 4% and 5% and 17% and 29% and 48%
raw viability signal, replicates ([1]; 3.125 uM): 1117 and 1426 and 1406 and 1238 and 1059 and 765.3
inhibition relative to 0 uM control, replicates ([1]; 6.25 uM): 51% and 31% and 24% and 23% and 20% and 40%
raw viability signal, replicates ([1]; 6.25 uM): 729.7 and 1018 and 1129 and 1147 and 1185 and 883.7
inhibition relative to 0 uM control, replicates ([1]; 12.5 uM): 38% and 61% and 46% and 56% and 44% and 48%
raw viability signal, replicates ([1]; 12.5 uM): 920.2 and 574.4 and 802.0 and 653.5 and 827.6 and 767.5
inhibition relative to 0 uM control, replicates ([1]; 25 uM): 71% and 70% and 63% and 61% (2×) and 82%
raw viability signal, replicates ([1]; 25 uM): 436.2 and 441.9 and 545.0 and 582.0 and 581.4 and 260.8
inhibition at 0.000488281 µM ([2]; Homo sapiens, RS4-11, RS4:11, 0.488281 nM, read-out: inhibition rate): 67%
inhibition at 0.000976562 µM ([2]; Homo sapiens, RS4-11, RS4:11, 0.976562 nM, read-out: inhibition rate): 81%
inhibition at 0.00195312 µM ([2]; Homo sapiens, RS4-11, RS4:11, 1.95312 nM, read-out: inhibition rate): 97%
inhibition at 0.00390625 µM ([2]; Homo sapiens, RS4-11, RS4:11, 3.90625 nM, read-out: inhibition rate): 99%
inhibition at 0.0078125 µM ([2]; Homo sapiens, RS4-11, RS4:11, 7.8125 nM, read-out: inhibition rate): 100%
inhibition at 0.015625 µM ([2]; Homo sapiens, RS4-11, RS4:11, 15.625 nM, read-out: inhibition rate): 100%
inhibition at 0.03125 µM ([2]; Homo sapiens, RS4-11, RS4:11, 31.25 nM, read-out: inhibition rate): 100%
inhibition at 0.0625 µM ([2]; Homo sapiens, RS4-11, RS4:11, 62.5 nM, read-out: inhibition rate): 100%
inhibition at 0.125 µM ([2]; Homo sapiens, RS4-11, RS4:11, 125 nM, read-out: inhibition rate): 100%
inhibition at 0.25 µM ([2]; Homo sapiens, RS4-11, RS4:11, 250 nM, read-out: inhibition rate): 100%
inhibition at 0.5 µM ([2]; Homo sapiens, RS4-11, RS4:11, 500 nM, read-out: inhibition rate): 100%
inhibition at 1 µM ([2]; Homo sapiens, RS4-11, RS4:11, 1000 nM, read-out: inhibition rate): 100%
raw luminescence reading ([2]; 0.244141 nM): 319400 and 358600 and 385500 and 388700 and 346000 and 423800
raw luminescence reading ([2]; 0.488281 nM): 145900 and 162000 and 168900 and 156800 and 153400 and 152700
inhibition rate ([2]; 0.488281 nM, 0.000488281 µM): 63% and 62% and 65% and 66%
raw luminescence reading ([2]; 0.976562 nM): 85360 and 92040 and 97200 and 90740 and 85390 and 85400
inhibition rate ([2]; 0.976562 nM, 0.000976562 µM): 79% and 78% and 80%
raw luminescence reading ([2]; 1.95312 nM): 14920 and 16290 and 16450 and 15190 and 15570 and 13650
inhibition rate ([2]; 1.95312 nM, 0.00195312 µM): 96%
raw luminescence reading ([2]; 3.90625 nM): 2969 and 3143 and 3110 and 2929 and 2545 and 2763
raw luminescence reading ([2]; 7.8125 nM): 1394 and 1471 and 1609 and 1459 and 1530 and 1294
raw luminescence reading ([2]; 15.625 nM): 649.5 and 693.0 and 701.2 and 740.3 and 855.6 and 501.0
raw luminescence reading ([2]; 31.25 nM): 598.7 and 870.6 and 1121 and 921.5 and 938.2 and 1010
raw luminescence reading ([2]; 62.5 nM): 361.9 and 494.9 and 587.5 and 446.2 and 364.9 and 488.9
raw luminescence reading ([2]; 125 nM): 503.8 and 401.2 and 517.1 and 644.2 and 454.2 and 588.4
raw luminescence reading ([2]; 250 nM): 1061 and 1147 and 1486 and 1266 and 1158 and 1293
raw luminescence reading ([2]; 500 nM): 507.0 and 488.7 and 440.9 and 484.8 and 485.1 and 504.0
raw luminescence reading ([2]; 1000 nM): 274.1 and 376.6 and 535.0 and 446.7 and 313.0 and 467.2
inhibition relative to 0 uM control, replicates ([3]; 0.375 uM): 36% and 32% (2×) and 29% and 31%
raw viability signal, replicates ([3]; 0.375 uM): 1239000 and 1266000 and 1356000 and 1351000 and 1403000 and 1379000
inhibition relative to 0 uM control, replicates ([3]; 0.75 uM): 33% and 36% and 41%
raw viability signal, replicates ([3]; 0.75 uM): 1132000 and 1330000 and 1241000 and 1225000 and 1265000 and 1179000
inhibition relative to 0 uM control, replicates ([3]; 1.5 uM): 44% and 41% and 40% and 37% and 34%
raw viability signal, replicates ([3]; 1.5 uM): 1078000 and 1124000 and 1172000 and 1189000 and 1263000 and 1304000
inhibition relative to 0 uM control, replicates ([3]; 3 uM): 44% and 39% and 40%
raw viability signal, replicates ([3]; 3 uM): 1152000 and 1105000 and 1149000 and 1214000 and 1192000 and 1143000
inhibition relative to 0 uM control, replicates ([3]; 6 uM): 47% and 44% and 41%
raw viability signal, replicates ([3]; 6 uM): 1071000 and 1059000 and 1122000 and 1132000 and 1181000 and 1149000
inhibition relative to 0 uM control, replicates ([3]; 12 uM): 60% and 56% and 54% and 53%
raw viability signal, replicates ([3]; 12 uM): 855500 and 799300 and 877600 and 917700 and 934900 and 865100
inhibition at 0.375 µM ([3]; Homo sapiens, 0.375 uM, read-out: inhibition relative to 0 uM control, replicates): 38%
inhibition at 0.75 µM ([3]; Homo sapiens, 0.75 uM, read-out: inhibition relative to 0 uM control, replicates): 43%
inhibition at 1.5 µM ([3]; Homo sapiens, 1.5 uM, read-out: inhibition relative to 0 uM control, replicates): 46%
inhibition at 3 µM ([3]; Homo sapiens, 3 uM, read-out: inhibition relative to 0 uM control, replicates): 42%
inhibition at 6 µM ([3]; Homo sapiens, 6 uM, read-out: inhibition relative to 0 uM control, replicates): 46%
inhibition at 12 µM ([3]; Homo sapiens, 12 uM, read-out: inhibition relative to 0 uM control, replicates): 57%
